# Source: patent publication US10945980B2, “Treatment for myopia” (The University of Newcastle, priority 2016, dated 2021)
# Columns and labels:
# Format in all cases: in vivo, guinea pig (Cavia porcellus)
# [1] = test system: normal eye growth in guinea pigs; assay: Eye drops on normal growth and emmetropization (no lens wear); details: eye drops twice daily 9-16 days of age
# Description: Two experimental protocols were employed (see Table 4). In Experiment 1, young guinea pigs wore a −6D lens on one eye from 5-12 days of age. They were randomly divided within each litter into two groups of 10 animals each, and received either a drop of L-Arginine (100 mM, 1.7%) in Saline (pH 7.4) or Saline alone (0.9%, pH 7.4) twice per day in the eye wearing the lens (Table 4). Drops were administered at the beginning of their light cycle and again approximately 6 hrs later in the middle of their day cycle. Lenses were removed during the drop administration which occurred under dim red light or in darkness. A single large drop was bathed on the cornea for 3 min in the lens-wearing eye in hand held animals. A clean lens was then reintroduced onto the eye. In Experiment 2, 14 guinea pigs were given eye drops in the same manner as in Experiment 1, but in both eyes and without any lens-wear, to determine the effect of the eye drops on normal eye growth. Animals received one drop of either 1.7% L-arginine (n=7) or atropine (Minims Atropine Sulphate 1%, Bausch & Lomb, preservative free, n=7) in one eye and saline (0.9%) in the other eye twice per day from 9-16 days of age.
# In Experiment 1, at the end of the lens-wearing period, at 12 days of age just before the morning lights came on, both eyes were cyclopleged (1% Cyclopentolate—to paralyse the focussing muscles of the eye to a resting state) and 1.25 hours later, refractive error (RE) was measured. Animals were then anaesthetised with gaseous anaesthetic (1.5% isoflurane in oxygen) and eye length measures were taken in both eyes with high frequency ultrasound as described in Example 1. Biometry measures were also taken in the same manner before the lens wear period at 5 days of age. [No refractive measures were done at 5 days of age as cycloplegia could have interfered with the drug or lens response]. In Experiment 2, refractive error and eye length using ultrasound were measured in the same manner at 17 days of age, 24 hours after the previous drop was administered.
# After cycloplegia was induced, refractive error was measured in each eye using an Autorefractor (Nidek AR-20, Japan). The spherical equivalent was calculated as the average of the sphere plus half the cylinder as is normal in clinical practice. All reported refractive errors are the spherical equivalent. Next, ocular length was measured using high frequency ultrasound (20 MHz) as previously described (McFadden et al, 2004). At least 20 traces were recorded for each eye and distances were averaged for at least 10 of these recordings. Peaks from the recordings were selected for the back of the cornea, the crystalline lens, and the vitreous chamber, and the layers at the back of the eye: the retina, choroid, and sclera. Ocular length was defined as the summed measurement from the front of the cornea to the back of the sclera.
# Differences between the two eyes were analysed by a 2-tailed T-tests. The mean of calculated differences between the two eyes is referred to as relative myopia or relative ocular length and the difference in the change in ocular length in the treated compared to the untreated eye as relative growth.
# [2] = test system: recovery from myopia in guinea pigs; assay: Intravitreal nωPLA during recovery from −6D lens-induced myopia
# Text: That is, if up-regulation of nNOS was causal in the myopic recovery response, injections of nωPLA would be expected to inhibit the ability of the myopic eye recover from myopia.
# (§1) In this second experiment, thirty four guinea pigs were raised and measured as described in Example 1. To induce myopia, animals wore a −6D lens on one eye from P6-P13, which was then removed for 3 days to initiate recovery from myopia, exactly as described in Example 1, Group 3. During the recovery period, animals received daily intravitreal injections (10 μl into the eye which had worn the lens) of either 6 mM nωPLA (PLA, n=9) or vehicle (0.9% isotonic saline, pH 7.4, n=11) on postnatal days P13, P14, and P15. To study the effect of the drugs on normal growth, a further seven animals were raised for the same period without lenses, and from P13 received a vehicle injection into the left eye and a 6 mM nωPLA injection into the right eye for 3 days. The dosage level of 6 mM refers to the concentration of nωPLA in the syringe. (Considerably smaller doses would be experienced at the level of the retina). In all animals, refractive error and axial parameters were measured in both eyes before and after the recovery period, at P13 and P16. In lens-wearing animals, untreated fellow eyes served as matched controls and data is expressed as the relative difference between the lens-wearing eye and the fellow eye.
# [3] = test system: normal growth of guinea pig eyes; assay: Intravitreal nωPLA on normal growth (animals without lenses); details: 6 mM nωPLA right eye vs vehicle left eye, 3 days from P13, no lenses
# Description: as §1
Structure (SMILES),"ocular length on average ([1]; measured at 17 days, p=0.22 between groups)","mean refractive error, both eyes averaged ([1]; measured at 17 days, p=0.32 between groups)","effect on refractive error (drug eye vs saline eye) ([1]; no lens, 1.7% LA (p=0.69) or 1% Atropine (p=0.40))","difference between the two eyes in ocular length (drug eye vs saline control eye) ([1]; LA p=0.39, ATR p=0.42)","difference between the eyes in refractive error after the three day recovery period ([2]; 6 mM nωPLA (in syringe) 10 μl intravitreal daily P13-P15, measured P16)","ocular length relative to the saline group after the recovery period ([2]; 6 mM nωPLA intravitreal daily P13-P15, measured P16)",elongation in animals without myopia [3],relative myopia in animals without myopia [3]
CN1[C@@H]2CC[C@H]1C[C@@H](OC(=O)C(CO)c1ccccc1)C2 (some centres unmarked) [Atropine],8.192 mm,+5.08,no difference in mean refractive error between the two eyes,+20 μm,,,,
"CCCN=C(N)NCCC[C@H](N)C(=O)O [nωPLA, N-w-propyl-L-arginine]",,,,,−5.4 D,had longer eyes,no influence,no influence
